Laboratory results taken from US8236729B2, “Herbicidal compositions” (Bayer Cropscience AG, priority 2004, dated 2012).

Test system: Lolium multiflorum
Assay: Outdoor trial, post-emergence herbicidal action (Example 5.2)
Assay type: in vivo
Details: 1080 g of AS/ha, application at the 2-5-leaf stage (post-emergence), evaluation 55 days after treatment
Protocol: The herbicidal efficacy of the active compounds or active compound mixtures was scored visually by comparing the treated pots (soil) with untreated controls. The damage and development of all above-ground plant parts was recorded. Scoring was done on a percentage scale (100% action=all plants dead or not emerged; 50% action=50% of the plants and green plant parts dead or not emerged; 0% action=no discernible action=like control plot). The score figures of in any case 4 repetitions (pots) were averaged.
When applying the combinations according to the invention, herbicidal effects are frequently observed on a harmful plant species which exceed the formal total of the effects of the herbicides present when these are applied by themselves. Alternatively, it is observed in some cases that a lower application rate is required for the herbicide combination in order to achieve the same effect on a harmful plant species in comparison with the individual products. […] When the data observed already exceed the formal total of the data in the experiments with individual applications, they likewise exceed the expected value according to Colby, which is calculated using the formula below and is likewise regarded as an indication of synergism (cf. S. R. Colby; in Weeds 15 (1967) pp. 20 to 22): E=A+B−(A·B/100) […]

Glyphosate-isopropylammonium [(B2.1.2.1)]
Herbicidal action [%] against Lolium multiflorum: 18%
